Activity calls are given as the source filed them. The rule behind the calls is not given here.

One series has as its system MDA-MB-231. Put plainly: Antiproliferative activity against human MDA-MB-231 cells assessed as reduction in cell viability incubated for 24 hrs by CCK-8 assay. In kind it is functional, cell-based. The settings on record: MDA-MB-231, 24 h.
Series [1] concerns NCI-H460. Put plainly: Cytotoxicity against human NCI-H460 cells assessed as reduction in cell viability at 10 uM incubated for 8 hr by CCK-8 assay. In kind it is functional, cell-based. (In general: Formazan colour is commonly taken as a measure of viable cells.)
The subject of a further series is L02. Put plainly: Cytotoxicity against human L02 cells assessed as reduction in cell viability incubated for 8 hrs by CCK-8 assay. In kind it is toxicity, cell-based. The settings on record: l02, 8 h.
In a further series the test system is SGC-7901. Put plainly: Antiproliferative activity against human SGC-7901 cells assessed as reduction in cell viability incubated for 24 hrs by CCK-8 assay. In kind it is functional, cell-based. The note with it: SGC-7901, 24 h.
The test system of a further series is MCF7. The experiment in a line: Antiproliferative activity against human MCF7 cells assessed as reduction in cell viability incubated for 24 hrs by CCK-8 assay. The series is classed as functional, cell-based. The settings on record: MCF7, 24 h.
For a further series, the system named is SW480. The experiment in a line: Antiproliferative activity against human SW480 cells assessed as reduction in cell viability incubated for 24 hrs by CCK-8 assay. The series is classed as functional, cell-based. The note with it: SW480, 24 h.
The next series deals with A549. The experiment in a line: Antiproliferative activity against human A549 cells assessed as reduction in cell viability incubated for 24 hrs by CCK-8 assay. The series is classed as functional, cell-based. The note with it: A549, 24 h.
The subject of the next series is U-251. Put plainly: Antiproliferative activity against human U-251 cells assessed as reduction in cell viability incubated for 24 hrs by CCK-8 assay. In kind it is functional, cell-based. The note with it: U-251, 24 h.
The test system of another series is HONE1 cell line. Put plainly: Antiproliferative activity against human HONE1 cell line assessed as reduction in cell viability incubated for 24 hrs by CCK-8 assay. In kind it is functional, cell-based. The note with it: HONE1, 24 h.
In the next series the test system is NCI-H1650. Put plainly: Antiproliferative activity against human NCI-H1650 cells assessed as reduction in cell viability incubated for 24 hrs by CCK-8 assay. The series is classed as functional, cell-based. The note with it: NCI-H1650, 24 h.
For the next series, the system named is LoVo. The experiment in a line: Antiproliferative activity against human LoVo cells assessed as reduction in cell viability incubated for 24 hrs by CCK-8 assay. The series is classed as functional, cell-based.
Series [2] in a line: Antiproliferative activity against human NCI-H1688 cells assessed as reduction in cell viability incubated for 24 hrs by CCK-8 assay. In kind it is functional, cell-based. The settings on record: NCI-H1688, 24 h.
For a further series, the system named is NCI-H1299. The experiment in a line: Antiproliferative activity against human NCI-H1299 cells assessed as reduction in cell viability incubated for 24 hrs by CCK-8 assay. In kind it is functional, cell-based. The settings on record: NCI-H1299, 24 h.
The subject of a further series is AGS. Put plainly: Antiproliferative activity against human AGS cells assessed as reduction in cell viability incubated for 24 hrs by CCK-8 assay. In kind it is functional, cell-based.
Series [3] is described as follows: Antiproliferative activity against human […] cells assessed as reduction in cell viability incubated for 24 hrs by CCK-8 assay. The series is classed as functional, cell-based.
The subject of a further series is OVCAR-3. Put plainly: Antiproliferative activity against human OVCAR-3 cells assessed as reduction in cell viability incubated for 24 hrs by CCK-8 assay. In kind it is functional, cell-based. The settings on record: OVCAR-3, 24 h.
In series [4] the test system is NCI-H460. Put plainly: Antiproliferative activity against human NCI-H460 cells assessed as reduction in cell viability incubated for 24 hrs by CCK-8 assay. The series is classed as functional, cell-based. The note with it: NCI-H460, 24 h.
A further series deals with HepG2. The experiment in a line: Antiproliferative activity against human HepG2 cells assessed as reduction in cell viability incubated for 24 hrs by CCK-8 assay. In kind it is functional, cell-based. The note with it: HepG2, 24 h.

As usually defined, the IC50 is the concentration that gives 50% inhibition. Take `C[S+]([O-])CCCCN=C=S` (stereo not given) [SULFORAPHANE]: the IC50 was 22.2 µM in the series on MDA-MB-231; 24.9 µM with SGC-7901; 23.1 µM in the series with MCF7; 17.8 µM in the series on SW480; 20.2 µM with A549; 22.5 µM with U-251. Also, the IC50 in the series on HONE1 cell line was 19.3 µM; in the series with NCI-H1650 it was 22 µM; in the series with LoVo, 18.5 µM; in series [2], 16.8 µM; in the series with NCI-H1299, 11.6 µM; in the series on AGS, 18.4 µM. In addition, the IC50 stood at 25.1 µM in [3], 18.4 µM in the series with OVCAR-3, 21.2 µM in the series on NCI-H460 [4] and 21 µM in the series on HepG2. Further, the outcome in the series with NCI-H460 [1] was inactive. Besides, in the series on L02, the Activity result is “Non-Toxic”.
As to `C=CCc1ccc(O)c(-c2cc(CC=C)ccc2OCCS(=O)(=O)CCCCN=C=S)c1`, in the series with NCI-H460 [1], the outcome was inactive. The Activity result in the series on L02 is listed as “Non-Toxic”.
In the case of `C=CCc1ccc(O)c(-c2cc(CC=C)ccc2O)c1` [MAGNOLOL], the IC50 with MDA-MB-231, with SGC-7901, in the series on MCF7, in the series with SW480, in the series with A549 and in the series on U-251 was more than 45 µM in each case. Besides, the IC50 (in the series on HONE1 cell line; in the series with NCI-H1650; with LoVo; in series [2]; in the series with NCI-H1299; in the series on AGS) was more than 45 µM in each case. For the same compound, the IC50 (in series [3]; with OVCAR-3; with NCI-H460 [4]; with HepG2) was more than 45 µM in each case. In addition, the outcome in the series on NCI-H460 [1] was inactive. Moreover, the Activity entry in the series with L02 is “Non-Toxic”.
With `C=CCc1ccc(O)c(-c2cc(CC=C)ccc2OCCSCCCCN=C=S)c1`, the outcome in the series on NCI-H460 [1] was inactive. For the same compound, the Activity result in the series with L02 is “Non-Toxic”.

(Values after ChEMBL document CHEMBL5233246, “CT1-3, a novel magnolol-sulforaphane hybrid suppresses tumorigenesis through inducing mitochondria-mediated apoptosis and inhibiting epithelial mesenchymal transition” (Eur J Med Chem, 2020).)
